Data taken from US5869512A, “Azole compounds with antimycotic activity for human and veterinary use” (Zambon Group S.p.A, priority 1996, dated 1999).
Values after ≈ are worked out from the molar mass of the structure shown. Like-named read-outs stand apart in the source and are kept apart here.

Experiments:
[1] = tested on: C. albicans 1040; assay: In vitro growth inhibition, macromethod of scalar broth dilution (YNB); type: cell-based, Candida albicans
Text: (§1) A) The activity inhibiting the growth of mycetes has been evaluated by the macromethods of the scalar broth dilution in geometrical progression (M. R. McGinnis and M. G. Rinaldi, "Antimycotic drugs: mechanisms of action, drug resistance, susceptibility testing and assay of activity in biological fluids", in Antibiotic in Laboratory Medicine, Ed. V. Lorian, Baltimore 1991).
(§2) As growing medium Yeast Nitrogen Base broth (YNB) and Sabouraud Dextrose broth (SDB) were employed for yeasts and moulds respectively.
(§3) Fluconazole has been taken as reference compound.

[2] = tested on: C. neoformans; assay: as above; type: cell-based, Cryptococcus neoformans
Text: as §1, §2, §3

[3] = tested on: T. mentagrophytes; assay: In vitro growth inhibition, macromethod of scalar broth dilution (SDB); type: cell-based, Trichophyton mentagrophytes; conditions: for MIC: Trichophyton mentagrophytes, 168 h, read-out: MIC (minimum inhibiting concentration)
Text: as §1, §2, §3

[4] = tested on: A. fumigatus; assay: as above; type: cell-based, Aspergillus fumigatus; conditions: for MIC: Aspergillus fumigatus, 168 h, read-out: MIC (minimum inhibiting concentration)
Text: as §1, §2, §3

[5] = tested on: Candida albicans 1040; assay: In vivo oral antimycotic effectiveness, systemic candidiasis; design: species or system mice (Albino Charles River, CD1 strain); conditions: mice, oral at 0, 4, 24, 48 hours after i.v. infection; for PD50 (medium protective dose) at the 14th day: 20160 min; for ED50: Candida albicans, 1040, in Mus musculus, po, 336 h, read-out: PD50 (medium protective dose) at the 14th day
Method: (§4) Albino Charles River mice (CD1 strain) weighing from 23 to 25 g, normally feed with a standard diet and water ad libitum were employed.
(§5) Each animal has been intravenously (for systemic candidiasis, crytpococcosis, aspergillosis), intracranially (for intracranial cryptococcosis) or nasally (for pulmonary aspergillosis) treated with a suspension (0.2 ml containing 2.5×10^7 cells/ml) of the due microorganism in physiological. Right after the injection and after 4, 24 and 48 hours the animals has been orally administered (in 2% Arabic gum) geometrically progressive increasing doses of the compound under test. An infected group has been used as control.
(§6) The mortality monitoring of the mice has been prolonged up to 14 days. The medium protective dose (PD50) has been calculated by the probits analysis (L. Lison--"Statistica applicata alla biologia sperimentale. La programmazione dell'esperimento e l'analisi dei risultati"--Casa Editrice Ambrosiana, 1961) on the basis of the number of animals survived at each concentration.
(§7) Fluconazole and Itraconazole were taken as reference compounds.

[6] = tested on: A. fumigatus; assay: In vitro antimycotic activity, dilution in agar (mycetes); type: cell-based, Aspergillus fumigatus; conditions: casitone agar pH 7, 32° C., 1-10 days
Method: (§8) B) The activity inhibiting the growth of yeasts and filamentosous fungi has been evaluated by the method of the dilution in agar. The minimum inhibiting concentration at 50% (MIC50) was measured by incorporating into the growing medium decreasing concentrations of the tested compounds thus yielding scalar concentration on basis 2, from […].
(§9) As growing medium casitone agar buffered at pH=7 (casitone 9 g, glucose 20 g, sodium citrate 10 g, leaven extract 5 g, agar 18 g, potassium biphosphate 0.54 g, sodium biphosphate 3.34 g, distilled water 1,000 ml) was employed.
(§10) For evaluating the activity against the mycetes the growing mediums containing the scalar concentrations of the compounds to be tested were inoculated with 1 μl of a suspension of 5×10^5 of spores/ml (conides or endospores) obtained from duly sporulated coltures. The inoculated growing mediums were incubated at 32° C. and the measurements were effected after 1, 2, 3, 5, 7 and 10 days.
(§11) Fluconazole, Itraconazole and Amphotericin B have been taken as reference compounds.

[7] = tested on: A. flavusalis; assay: as above; type: cell-based, Aspergillus flavus; conditions: casitone agar pH 7, 32° C., 1-10 days
Method: as §8, §9, §10, §11

[8] = tested on: A. niger; assay: as above; type: cell-based, Aspergillus niger; conditions: casitone agar pH 7, 32° C., 1-10 days
Method: as §8, §9, §10, §11

[9] = tested on: A. terreus; assay: as above; type: cell-based, Aspergillus terreus; conditions: casitone agar pH 7, 32° C., 1-10 days
Method: as §8, §9, §10, §11

[10] = tested on: A. alliaceus; assay: as above; type: cell-based, Aspergillus alliaceus; conditions: casitone agar pH 7, 32° C., 1-10 days
Method: as §8, §9, §10, §11

[11] = tested on: F. verticilloides; assay: as above; type: cell-based, Fusarium verticilloides; conditions: casitone agar pH 7, 32° C., 1-10 days
Method: as §8, §9, §10, §11

[12] = tested on: F. proliferatum; assay: as above; type: cell-based, Fusarium proliferatum; conditions: casitone agar pH 7, 32° C., 1-10 days
Method: as §8, §9, §10, §11

[13] = tested on: Acremonium; assay: as above; type: cell-based; conditions: casitone agar pH 7, 32° C., 1-10 days
Method: as §8, §9, §10, §11

[14] = tested on: Mucor; assay: as above; type: cell-based; conditions: casitone agar pH 7, 32° C., 1-10 days
Method: as §8, §9, §10, §11

[15] = tested on: Pseudoallescheria; assay: as above; type: cell-based; conditions: casitone agar pH 7, 32° C., 1-10 days
Method: as §8, §9, §10, §11

[16] = tested on: Trichoderma; assay: as above; type: cell-based; conditions: casitone agar pH 7, 32° C., 1-10 days
Method: as §8, §9, §10, §11

[17] = tested on: A. corymbifera; assay: as above; type: cell-based, Absidia corymbifera; conditions: casitone agar pH 7, 32° C., 1-10 days
Method: as §8, §9, §10, §11

[18] = tested on: R. pusillus; assay: as above; type: cell-based, Rhyzomucor pusillus; conditions: casitone agar pH 7, 32° C., 1-10 days
Method: as §8, §9, §10, §11

[19] = tested on: Cryptococcus neoformans 3443; assay: In vivo oral antimycotic effectiveness, systemic cryptococcosis; design: species or system mice (Albino Charles River, CD1 strain); conditions: 336 h, mice, oral at 0, 4, 24, 48 hours after i.v. infection, read-out: PD50 (medium protective dose) at the 14th day
Method: as §4, §5, §6, §7

[20] = tested on: Cryptococcus neoformans ISM; assay: In vivo oral antimycotic effectiveness, intracranial cryptococcosis; design: species or system mice (Albino Charles River, CD1 strain); conditions: 336 h, mice, oral at 0, 4, 24, 48 hours after intracranial infection, read-out: PD50 (medium protective dose) at the 14th day
Method: as §4, §5, §6, §7

[21] = tested on: Aspergillus fumigatus MOL-4; assay: In vivo oral antimycotic effectiveness, pulmonary aspergillosis; design: species or system mice (Albino Charles River, CD1 strain); conditions: MOL4, 336 h, mice, oral at 0, 4, 24, 48 hours after nasal infection, read-out: PD50 (medium protective dose) at the 14th day
Method: as §4, §5, §6, §7

[22] = tested on: Aspergillus fumigatus MOL-4; assay: In vivo oral antimycotic effectiveness, systemic aspergillosis; design: species or system mice (Albino Charles River, CD1 strain); conditions: MOL4, 336 h, mice, oral at 0, 4, 24, 48 hours after i.v. infection, read-out: PD50 (medium protective dose) at the 14th day
Method: as §4, §5, §6, §7

[23] = C. albicans 1040, YNB, 35° C., 48 hours, 2A, 3A, 3B tested as nitrates
[24] = C. neoformans, YNB, 35° C., 48 hours, 2A, 3A, 3B tested as nitrates
[25] = T. mentagrophytes, SDB, 28° C., 7 days, 2A, 3A, 3B tested as nitrates
[26] = A. fumigatus, SDB, 28° C., 7 days, 2A, 3A, 3B tested as nitrates
[27] = Cryptococcus neoformans, 48 h, C. neoformans, YNB, 35° C., 48 hours, 2A, 3A, 3B tested as nitrates, read-out: IC50
[28] = Candida albicans, 1040, 48 h, C. albicans 1040, YNB, 35° C., 48 hours, 2A, 3A, 3B tested as nitrates, read-out: IC50

Compound | IC50 [2, 27] [µg/mL] | MIC [3, 25] [µg/mL] | MIC [4, 26] [µg/mL] | ED50 [5] [mg/kg] | ED50 [19] [mg/kg] | ED50 [20] [mg/kg] | ED50 [21] [mg/kg] | ED50 [22] [mg/kg] | also measured
CC(C)(COC(F)(F)C(F)F)C(O)(Cn1cncn1)c1ccc(F)cc1F (single isomer, unassigned; (+)) [Compound 1B] |  |  |  |  |  |  |  |  | IC50 [1, 23]: 1 µg/mL (≈ 2.52 µM); IC50 [2, 24]: 1 µg/mL (≈ 2.52 µM); MIC (minimum inhibiting concentration) [3, 25]: 32 µg/mL (≈ 80.5 µM); MIC (minimum inhibiting concentration) [4, 26]: > 128 µg/mL; PD50 (medium protective dose) at the 14th day [5]: > 2 mg/kg/os
CC(C)(COC(F)(F)C(F)F)C(O)(Cn1cncn1)c1ccc(F)cc1F (single isomer, unassigned; (-)) [Compound 1A, (-) 2-(2,4-difluorophenyl)-4-(1,1,2-tetrafluoroethoxy)-3,3-dimethyl-1-(1H-1,2,4-triazol-1-yl)-2-butanol] |  |  |  |  |  |  |  |  | IC50 [1, 23]: 0.0078 µg/mL (≈ 0.0196 µM); IC50 [2, 24]: 0.0078 µg/mL (≈ 0.0196 µM); MIC (minimum inhibiting concentration) [3, 25]: 0.125 µg/mL (≈ 0.315 µM); MIC (minimum inhibiting concentration) [4, 26]: 4 µg/mL (≈ 10.1 µM); PD50 (medium protective dose) at the 14th day [5]: 0.64 mg/kg/os
C[C@@H]1[C@H](O)[C@@H](C)/C=C/C=C/C=C/C=C/C=C/C=C/C=C/[C@H](O[C@@H]2O[C@H](C)[C@@H](O)[C@H](N)[C@@H]2O)C[C@@H]2O[C@](O)(C[C@@H](O)C[C@@H](O)[C@H](O)CC[C@@H](O)C[C@@H](O)CC(=O)O[C@H]1C)C[C@H](O)[C@H]2C(=O)O [Amphotericin B] |  |  |  |  |  |  |  |  | MIC50 [6]: 0.25 µg/mL (≈ 0.271 µM); MIC50 [7]: 0.25 µg/mL (≈ 0.271 µM); MIC50 [8]: 0.12 µg/mL (≈ 0.13 µM); MIC50 [9]: 0.25 µg/mL (≈ 0.271 µM); MIC50 [10]: 16 µg/mL (≈ 17.3 µM); MIC50 [11]: 2 µg/mL (≈ 2.16 µM); MIC50 [12]: 1 µg/mL (≈ 1.08 µM); MIC50 [13]: 16 µg/mL (≈ 17.3 µM); MIC50 [14]: 0.03 µg/mL (≈ 0.0325 µM); MIC50 [15]: 8 µg/mL (≈ 8.66 µM); MIC50 [16]: 1 µg/mL (≈ 1.08 µM); MIC50 [17]: 0.06 µg/mL (≈ 0.0649 µM); MIC50 [18]: 0.06 µg/mL (≈ 0.0649 µM)
C[C@@H](COC(F)(F)C(F)F)[C@](O)(Cn1cncn1)c1ccc(F)cc1F [Compound 2A, (-) (2R,3S)-2-(2,4-difluorophenyl)-4-(1,1,2,2-tetrafluoroethoxy)-3-methyl-1-(1H-1,2,4-triazol-1-yl)-2-butanol] | 0.0312 (≈ 0.0814 µM) | 0.25 (≈ 0.652 µM) | 8 (≈ 20.9 µM) | 0.32 | 8.84 | 14.6 | 9.3 | 3.5 | 
C[C@@H](COC(F)(F)C(F)F)[C@](O)(Cn1cncn1)c1ccc(Cl)cc1Cl [Compound 3A, (-) (2R,3S)-2-(2,4-dichlorophenyl)-4-(1,1,2,2-tetrafluoroethoxy)-3-methyl-1-(1H-1,2,4-triazol-1-yl)-2-butanol] | 0.0078 (≈ 0.0187 µM) | 0.0625 (≈ 0.15 µM) | 2 (≈ 4.81 µM) | 0.38 | 5.48 | 12.5 | 6.9 | 4.5 | IC50 [1, 28]: 0.0078 µg/mL (≈ 0.0187 µM)
C[C@H](COC(F)(F)C(F)F)[C@@](O)(Cn1cncn1)c1ccc(Cl)cc1Cl [Compound 3B, (+) (2S,3R)-2-(2,4-dichlorophenyl)-4-(1,1,2,2-tetrafluoroethoxy)-3-methyl-1-(1H-1,2,4-triazol-1-yl)-2-butanol] | 1 (≈ 2.4 µM) | 16 (≈ 38.4 µM) | > 128 | 4.57 |  |  |  |  | IC50 [1, 28]: 0.25 µg/mL (≈ 0.601 µM)
OC(Cn1cncn1)(Cn1cncn1)c1ccc(F)cc1F [Fluconazole, reference compound] |  |  |  | 0.61 | 63.2 | 22.3 | > 100 |  | IC50 ([1]; Candida albicans, 1040, 48 h): 0.5 µg/mL (≈ 1.63 µM); IC50 ([2]; Cryptococcus neoformans, 48 h): 2 µg/mL (≈ 6.53 µM); MIC [3]: 16 µg/mL (≈ 52.2 µM); MIC [4]: > 128 µg/mL
CCC(C)n1ncn(-c2ccc(N3CCN(c4ccc(OCC5COC(Cn6cncn6)(c6ccc(Cl)cc6Cl)O5)cc4)CC3)cc2)c1=O (stereo not shown) [Itraconazole, reference compound] |  |  |  | 1.74 | > 50 | > 25 | > 20 | 10.2 | 
